The text below walks through data of patent publication US12054485B2, “Substituted imidazoquinolines” (BIONTECH SE, priority 2017, dated 2024).

The subject of this experiment is Human PBMCs. Briefly: IFN-α induction by TLR agonists in human PBMCs (Luminex). The note with it: 24 h incubation, maximum of bell-shaped curve over 0.0003-1 μM, Table 1. Format: cell-based. The protocol:
1) IFN-α Induction Assay—IFN-α induction by TLR Agonists in Human PBMCs
Abbreviations: BSA=bovine serum albumine; PBS=phosphate buffer pH 7.4; PE=phycoerythrin; EDC=1-ethyl-3-(3-dimethylaminopropyl)carbodiimide hydrochloride.
Materials and Devices: Bio Plex 200 Luminex device, and BioPlex Manager software; MultiScreen Filter Plates (Millipore, MABVN1250); low binding reaction vials 1.5 ml (Sarstedt, 72.706.600); Activation Buffer: 0.1M Na-dihydrogen phosphate, 0.1M Di-Na hydrogen phosphate pH 6.2; Sulfo-NHS (N-hydroxysulfosuccinimide) solution: 50 mg/ml in water (freshly prepared); EDC solution: 50 mg/ml in water (freshly prepared); Coupling Buffer: PBS; Washing Buffer: PBS+0.05% Tween20; Blocking Buffer: PBS+10 mg/ml BSA+0.05% sodium azide; Assay Buffer: PBS+10 mg/ml BSA;
Other materials and devices (pipets, reaction vessels, shaker, etc.) were standard lab equipment; water was MilliQ grade quality, buffers were sterile filtered before use.
(Pre-)Incubation of Cells:
In each well of a 96-well U-bottom plate 200,000 PBMCs were pre-incubated in medium (RPMI1640-Gibco #61870-044+10% FBS+1% L-glutamine) for 5 hours at 37° C. and 5% CO2 before the compounds of the present invention or controls were added, respectively. Upon addition of compounds of the present invention or controls, the cells are incubated for another 24 h at 37° C. and 5% CO2.
Luminex assay, Step 1: Coupling of antibody to beads: • transfer a suspension (beads are stored in buffer as provided by manufacturer) of about 5 million MicroPlex Microspheres (=beads) into a low binding reaction vial • centrifuge bead suspension for 1 min at 10,000 g, discard supernatant and resuspend pellet in 160 μl Activation Buffer, repeat once • add 20 μl Sulfo-NHS solution and 20 μl EDC solution, vortex • incubate for 20 min in the absence of light • centrifuge bead suspension for 1 min at 10,000 g, discard supernatant and resuspend pellet in 500 μl Coupling Buffer, repeat once • add capture antibody (CaptureAK eBioscience #BMS160, 5 μg per 1 Mio beads) • incubate 2 h at RT in the absence of light while swaying • centrifuge bead suspension for 1 min at 10,000 g, discard supernatant and resuspend pellet in 500 μl Washing Buffer, repeat once • centrifuge bead suspension for 1 min at I0,000 g, discard supernatant and resuspend pellet in 100 μl Blocking Buffer
Luminex assay, Step 2: Measurement • add 100 μlAssay Buffer into each filter plate well (seal any unused wells with adhesive tape), then remove buffer • add about 2,000 beads per well per analyte (per analyte, a different bead type with distinct fluorescence color is used), suspended in […] of Assay Buffer • remove buffer and wash twice with 100 μl Washing Buffer per well • per well, add 50 μl sample solution from the (pre-)incubation step (cell supernatant), or Standard (IFN-α standard eBioscience #BMS216MST—concentration gradient, highest standard concentration 2500 pg/ml) or Assay Buffer (as blanks) • shake plate • incubate plate for 2 h at RT in the absence of light, while swaying the plate • wash three times with 100 μl Washing Buffer per well • add 25 μl antibody detection mix (DetectionAK eBioscience #BMS1016BT diluted 1:1000) in Assay Buffer per well, then vortex plate • incubate plate for 1 h at RT in the absence of light, while swaying the plate • wash three times with 100 μl Washing Buffer per well • add 50 μl Streptavidin/PE (diluted 1:200 in Assay Buffer) per well, then vortex plate • incubate plate for 10 min at RT in the absence of light, while swaying the plate • wash three times with 100 μl Washing Buffer per well • add 100 μl Assay Buffer per well, then vortex plate • start Luminex measurement according to manufacturer's instructions, measuring at least 50 beads per well per analyte
The compounds were tested at 8 different concentrations (1 μM, 0.3 μM, 0.1 μM, 0.03 μM, 0.01 μM 0.003 μM, 0.001 μM, 0.0003 μM) using a half-logarithmic dilution. […]

For the compound `CCc1nc2c(N)nc3ccccc3c2n1CCCCN(C(C)=O)C1CCOCC1` [Example 1, N-(4-(4-Amino-2-ethyl-1H-imidazo[4,5-c]quinolin-1-yl)butyl)-N-(tetrahydro-2H-pyran-4-yl)acetamide], the “Maximum IFN-α release” value is 1750 pg/mL.
